Values of other authors, collected in patent publication US20260272825A1, “LEVONORGESTREL AND COMPOSITIONS COMPRISING THE SAME” (CHEMO RESEARCH, S.L., priority 2023, published 2026).

Tested on: women

## C[C@]12CCC3=C4CCC(=O)C=C4CC[C@H]3[C@@H]1CC[C@@]2(O)CC#N [DNG, Dienogest]
2 mg daily
  Ovulation inhibition / ovarian activity, in words: provides ovulation inhibition, but ovarian activity is not completely suppressed

## C#C[C@]1(OC(C)=O)CC[C@H]2[C@@H]3CCC4=CC(=O)CC[C@@H]4[C@H]3CC[C@@]21C [NETA, norethisterone acetate]
Given continuously over 28 days
  Dosage providing ovulation inhibition: ≥ 0.35 mg/daily

## C#C[C@]1(O)CC[C@H]2[C@@H]3CCC4=CCCC[C@@H]4[C@H]3C(=C)C[C@@]21CC [desogestrel]
POP containing desogestrel 0.075 mg
  Cycles with ovulation inhibited: at least 98%
